The values below come from a melting point compilation (Tetko et al.).

Broadly, the melting point is the temperature of the solid-liquid transition. With `COC(=O)C#Cc1ccc(F)cc1F`, the melting point was 58 to 60 °C.

The compound `O=C(NNC(=O)C(Cl)Cl)c1ccccc1` gave a melting point of 184 to 186 °C.

For the compound `Cc1nn(-c2ccc(F)cc2F)c(C)c1CC(=O)O`, the melting point was in the range of 163 to 165 °C.

The compound `O=[N+]([O-])c1cc(Cl)cnc1Br` yielded a melting point of 75 to 77 °C.

`Clc1ccc(-c2nc3ccccc3[nH]2)cn1` gave a melting point of 198 to 200 °C.

As for `Cc1cc(=O)n(CC(=O)NC(C)C)c(C)c1C(=O)O`, the melting point lay within 229 to 231 °C.

For `COc1ccc(C(N)C(=O)O)cc1` (stereo not drawn), the melting point is 232 to 234 °C.

`O=C(O)CCCn1ccc2cc(Cl)ccc21`: the melting point was in the range of 79 to 81 °C.

`O=Cc1ccc(OC(=O)c2cccc([N+](=O)[O-])c2)cc1` yielded a melting point of 143 to 145 °C.

For the compound `CN(C)C(=O)Sc1cnc2c(c1)c(=O)n(C)c(=O)n2C`, the melting point lay within 170 to 172 °C.

As to `NC1CCCN(c2cc(C(=O)O)ccn2)C1` (stereo not drawn), the melting point is 252 to 254 °C.

With `O=C(NCc1ccco1)n1ccnc1`, the melting point lay in the range of 145 to 147 °C.

Compound `CCS(=O)(=O)c1ccc(F)c(C(=O)O)c1` registered a melting point of 129 to 131 °C.

Compound `CC(O)c1cc2ccccc2o1` (stereo not drawn) returned a melting point below 17 °C.

`Sc1nc(-c2ccc3c(c2)OCCO3)n[nH]1` gave a melting point of 282 to 284 °C.

Turning to `Brc1cn2ccnc2c(Br)n1`, the melting point lay in the range of 152 to 154 °C.

`N#Cc1ccc(CNC(=O)CCl)cc1` displayed a melting point of 142 to 144 °C.

The compound `O=[N+]([O-])c1ccc2nc(Br)sc2c1` had a melting point of 201 to 203 °C.

On to `Fc1ccccc1CNc1ccc(Cl)nn1`, for which the melting point was in the range of 169 to 171 °C.

Consider `Cc1ccc2ncc(C#N)n2c1`, for which the melting point was in the range of 126 to 128 °C.

`O=C(c1cccnc1)c1cc2ccccc2o1` came in with a melting point of 106 to 108 °C.

As for `NNC(=O)C1COc2ccccc2O1` (stereo not drawn), the melting point fell in the range of 111 to 113 °C.

`COC(=O)c1cc(S(=O)(=O)Cl)cnc1Cl` showed a melting point of 48 to 50 °C.

For the compound `CS(=O)(=O)c1ccc(S)cc1`, the melting point is 63 to 65 °C.

For the compound `O=C(O)c1cc(S)ccc1Cl`, the melting point is 154 to 156 °C.

In the case of `O=C(O)c1cc(N2CCCC2=O)cc(C(F)(F)F)c1`, the melting point is 188 to 190 °C.

`O=C(O)CCCCCCNC(=O)OCc1ccccc1` showed a melting point of 89 to 91 °C.

Take `CC(=O)Oc1ccc(C(=O)Nc2ccccc2)cc1`: the melting point was in the range of 161 to 163 °C.

The compound `CCCS(=O)(=O)N1CCCCC1C(=O)O` (stereo not drawn) had a melting point of 84 to 86 °C.

As for `O=Cc1cc(Br)c2c(c1)OCO2`, the melting point was in the range of 117 to 119 °C.

Regarding `CC(C)c1cc(C(=O)O)nn1C`, the melting point is 87 to 89 °C.

As to `CN(CC(=O)O)S(=O)(=O)C=Cc1ccccc1`, the melting point was in the range of 150 to 152 °C.

In the case of `Nc1ccc(C(=O)O)cc1CCCC(=O)O`, the melting point is 203 to 205 °C.

As to `CC(C)n1c(N)nnc1S`, the melting point was 189 to 191 °C.

In turn, `O=C(CCl)Nc1cc(Cl)ccc1F` had a melting point of 98 to 102 °C.

On to `CCOc1c(OC)cc(C=O)cc1OC`, for which the melting point lay in the range of 48 to 50 °C.

As for `COc1cccc2[nH]cc(CCN)c12`, the melting point fell in the range of 119 to 121 °C.

For `Nc1ccc(N2CCOCC2)cc1C(F)(F)F`, the melting point lay in the range of 74 to 76 °C.

`O=[N+]([O-])c1ccc(O)cc1Cl` came in with a melting point of 115 to 117 °C.

Compound `C#CCOc1ccc(N)cc1` yielded a melting point of 49 to 51 °C.

`CC(C(=O)O)n1cccn1` (stereo not drawn): the melting point was in the range of 96 to 98 °C.

The compound `Cc1ncncc1C(=O)O` showed a melting point of 174 to 176 °C.

In turn, `NC(=O)N1CCCC1CO` (stereo not drawn) returned a melting point of 94 to 96 °C.

Compound `CC(Oc1cccc(O)c1)C(N)=O` (stereo not drawn) came in with a melting point of 129 to 131 °C.

Regarding `Cc1cc(F)c(C(=O)O)cc1F`, the melting point lay in the range of 167 to 169 °C.

Compound `O=[N+]([O-])c1ccccc1CSc1ccc(C(F)(F)F)cn1` registered a melting point of 64 to 66 °C.

`Cc1ccc(-n2c(C)c(Br)c3c2CCCC3=O)cc1` returned a melting point of 139 to 141 °C.

`Nc1nnns1` returned a melting point of 120 to 122 °C.

`O=Cc1c[nH]c2ncccc12` returned a melting point of 211 to 213 °C.

For `Cc1ccc2cccc(S(=O)(=O)Cl)c2n1`, the melting point is 113 to 115 °C.

For `CC1(C)C(=O)Nc2ccccc2N1C(=O)CCl`, the melting point was 170 to 172 °C.

For the compound `CCNC(=O)c1cccnc1Cl`, the melting point lay within 47 to 49 °C.

In the case of `Cc1cc(Br)cn2c3c(nc12)CCNC3`, the melting point was in the range of 165 to 167 °C.

The compound `Cc1cn(-c2ncccc2F)nc1N` came in with a melting point of 131 to 133 °C.

Consider `Cc1sc(C(N)=O)cc1N`, for which the melting point fell in the range of 179 to 181 °C.

With `Nc1cc(F)c(OC2CCCCC2)cc1C(=O)O`, the melting point was in the range of 159 to 161 °C.

Take `O=C(O)c1ccc(F)nc1`: the melting point lay in the range of 144 to 148 °C.

`CC(C)n1[nH]c(-c2ccccc2)cc1=N`: the melting point lay within 83 to 85 °C.

`COCC1(C)CNC(=O)C1` (stereo not drawn): the melting point lay within 62 to 64 °C.

`NC(=O)NC(=O)CCl`: the melting point lay in the range of 181 to 183 °C.

`CCOc1ncc(C(=O)O)cc1Cl` displayed a melting point of 214 to 216 °C.

`O=C(O)c1cccc(N2CCCNC2=O)c1` gave a melting point of 277 to 279 °C.

The compound `O=[N+]([O-])c1ccc(OCCO)cc1C(F)(F)F` came in with a melting point of 62 to 64 °C.

Turning to `O=C(O)c1ccc(NC2=NS(=O)(=O)c3ccccc32)cc1`, the melting point fell in the range of 369 to 371 °C.

The compound `Cc1nc(-c2ccncc2)nc(Cl)c1C` displayed a melting point of 112 to 114 °C.

`N#Cc1cccnc1C1CC1`: the melting point fell in the range of 60 to 62 °C.

In turn, `Cn1nc(C(F)(F)F)c(C(=O)O)c1C(F)(F)F` had a melting point of 127 to 129 °C.

`Nc1cc(Cl)ccc1-n1cnnn1` gave a melting point of 130 to 132 °C.

In turn, `Nc1ccc(C(=O)N2CCc3ccccc32)cc1` displayed a melting point of 185 to 187 °C.

Take `CC(C(=O)NC1CCC(C(=O)O)CC1)n1cccn1` (stereo not drawn): the melting point was in the range of 154 to 156 °C.

Consider `CC(C)(CC(=O)c1ccc(Cl)cc1)C(=O)O`, for which the melting point fell in the range of 147 to 149 °C.

`O=c1[nH]c(CCl)nc2scc(-c3cccs3)c12` showed a melting point of 219 to 221 °C.

On to `CC(C)(C)OC(=O)N(CC(=O)O)C1CC1`, for which the melting point lay within 90 to 92 °C.

`O=C(O)c1cc(-c2ccc(F)cc2)nc2ccccc12` yielded a melting point of 193 to 197 °C.

In turn, `O=S(=O)(c1ccc(S)nc1)N1CCCC1` had a melting point of 179 to 181 °C.

In the case of `CC(C)(C)OC(=O)N1CC[C@H](O)C1`, the melting point lay within 60 to 62 °C.

For `CC(C)(C)c1nn(-c2ccccc2)cc1C=O`, the melting point was in the range of 57 to 59 °C.

`NC(=O)NC(C(=O)O)c1ccccc1` (stereo not drawn) registered a melting point of 201 to 203 °C.

As for `Sc1nnc(C2COc3ccccc3O2)o1` (stereo not drawn), the melting point fell in the range of 151 to 155 °C.

`CC(C)(C)OC(=O)N1CCNC(C#N)C1` (stereo not drawn) had a melting point of 109 to 111 °C.

In turn, `CC(Oc1ccccc1C(F)(F)F)C(=O)O` (stereo not drawn) showed a melting point of 145 to 147 °C.

In turn, `Cc1nc(/C=C/C(=O)O)cs1` gave a melting point of 177 to 179 °C.

For `Nc1ccc(F)c(NC(=O)Cc2ccccc2)c1`, the melting point lay within 180 to 182 °C.

The compound `Cc1ncc(C=O)n1-c1ccccc1` registered a melting point of 64 to 66 °C.

On to `COC(=O)c1ccc(Br)cc1F`, for which the melting point is 59 to 61 °C.

In turn, `COC(=O)c1c(-c2ccccc2Cl)csc1N` had a melting point of 92 to 96 °C.

In the case of `Nc1ccc2nc(-c3ccccn3)oc2c1`, the melting point is 178 to 180 °C.

In turn, `COc1ccccc1-n1cc(S(N)(=O)=O)cn1` had a melting point of 143 to 145 °C.
